{"source": "patent US20150184144A1", "about": "“Liquid Enzyme Composition and Method for Enzyme Recovery” (Novozymes A/S, priority 2012, published 2015)", "test_system": "Lactobacillus (L. buchneri and L. para paracasei)", "experiment": "Challenge screening of liquid enzyme formulations inoculated with Lactobacillus, viable cells (CFU)", "format": "cell-based", "conditions": "for CFU/ml After 1 week / CFU/ml After 2 weeks: 20-25° C.", "protocol": "The antimicrobial effect may be determined by analyzing viable cells (CFU) of the liquid formulation after inoculating with Lactobacillus and incubating for 1-2 weeks at 20-25° C. and comparing with a similar liquid composition without the fatty acid or salt.\nChallenge screening was performed by inoculating with 10^5-10^6 CFU/ml of Lactobacillus (L. buchneri and L. para paracasei), incubating for two weeks at 20-25° C., and analyzing viable cells (CFU) before and after inoculation and after 1 and 2 weeks.\nThe results are shown as CFU/ml (detection limit 100): […]", "key": {"[1]": {"conditions": "Example 5: 0.3% w/w inhibitor in glucoamylase formulation, pH 4.7"}, "[2]": {"conditions": "Example 5: glucoamylase (mixture of two variants) formulation, 48% w/w solids, pH 4.7, 0.3% w/w Na-octanoate or sodium benzoate instead, with or without 0.3% Na acetate trihydrate"}, "[3]": {"conditions": "Example 5: glucoamylase formulation, pH 4.7, 0.3% w/w Na-octanoate or sodium benzoate instead, with or without 0.3% Na acetate trihydrate"}, "[4]": {"conditions": "Example 1: Talaromyces glucoamylase formulation, 0.5% w/w Na-hexanoate, pH 5.0, detection limit 100"}}}
{"smiles": "CCCCCCCC(=O)[O-].[Na+]", "note": "[Octanoate, Na-Caprylate (Na-octanoate)]", "values": [{"measurement": "antimicrobial effect against Lactobacillus (in words)", "setting": "Example 4: 0.5% w/w Na-octanoate in glucoamylase formulation, pH 5.0, compared with formate+sorbate+propionate", "result": "strong antimicrobial (germicidal) effect"}, {"measurement": "antimicrobial effect against Lactobacillus (in words)", "setting": "[1]", "result": "strong antimicrobial (germicidal) effect"}, {"measurement": "CFU/ml Before inoculation", "setting": "[2]", "result": "≦100 CFU/ml"}, {"measurement": "CFU/ml After inoculation", "setting": "[3]", "result": 170000, "unit": "CFU/ml"}, {"measurement": "CFU/ml After 1 week", "setting": "[3]", "result": "≦100 CFU/ml"}, {"measurement": "CFU/ml After 2 weeks", "setting": "[3]", "result": "≦100 CFU/ml"}]}
{"smiles": "CC(=O)[O-].O.O.O.[Na+]", "note": "[acetate, Na acetate trihydrate, reference compound]", "values": [{"measurement": "antimicrobial effect against Lactobacillus (in words)", "setting": "[1]", "result": "not effective"}]}
{"smiles": "CCCCCC(=O)[O-].[Na+]", "note": "[Na-hexanoate]", "values": [{"measurement": "antimicrobial effect against Lactobacillus (in words)", "setting": "Example 1: 0.5% w/w Na-hexanoate in glucoamylase formulation, pH 5.0", "result": "antimicrobial (germicidal) effect"}, {"measurement": "CFU/ml After 1 week", "setting": "[4]", "result": "≦100 CFU/ml"}, {"measurement": "CFU/ml After 2 weeks", "setting": "[4]", "result": "≦100 CFU/ml"}, {"measurement": "CFU/ml After inoculation", "setting": "Example 1: Talaromyces glucoamylase formulation, 0.5% w/w Na-hexanoate, pH 5.0, inoculated with 10^5-10^6 CFU/ml", "result": 180000, "unit": "CFU/ml"}, {"measurement": "CFU/ml Before inoculation", "setting": "Example 1: Talaromyces glucoamylase formulation, 43% w/w solids (glucose), 0.5% w/w Na-hexanoate, pH 5.0, detection limit 100", "result": "≦100 CFU/ml"}, {"measurement": "antimicrobial effect against Lactobacillus (in words)", "setting": "Example 2: 0.5% w/w Na-hexanoate in xylanase and cellulase formulation, pH 4.6", "result": "antimicrobial (germicidal) effect"}, {"measurement": "antimicrobial effect against Lactobacillus (in words)", "setting": "Example 3: 0.5% w/w Na-hexanoate in cellulase and xylanase formulation, pH 4.55", "result": "antimicrobial (germicidal) effect"}]}
{"smiles": "O=C([O-])c1ccccc1.[Na+]", "note": "[Benzoate, sodium benzoate, reference compound]", "values": [{"measurement": "antimicrobial effect against Lactobacillus (in words)", "setting": "[1]", "result": "not effective"}, {"measurement": "CFU/ml Before inoculation", "setting": "[2]", "result": "≦100 CFU/ml"}, {"measurement": "CFU/ml After inoculation", "setting": "[3]", "result": 170000, "unit": "CFU/ml"}, {"measurement": "CFU/ml After 1 week", "setting": "[3]", "result": 150000, "unit": "CFU/ml"}, {"measurement": "CFU/ml After 2 weeks", "setting": "[3]", "result": 120000, "unit": "CFU/ml"}]}
